Measurements as given in ChEMBL document CHEMBL4330138, “Discovery of new indole-based acylsulfonamide Nav1.7 inhibitors” (Bioorg Med Chem Lett, 2019).

Assays:
[1] = biological target: Sodium channel protein type 5 subunit alpha (Homo sapiens, UniProt Q14524); test: Inhibition of human Nav1.5 at -50 mV holding potential by cell-based IonWorks barracuda automated electrophysiology method; format: ADME
[2] = biological target: T1, Sodium channel protein type 9 subunit alpha (Homo sapiens, UniProt Q15858); test: Inhibition of human Nav1.7 at -60 mV holding potential by cell-based IonWorks barracuda automated electrophysiology method
Target sequence in this assay (Q15858 whole entry): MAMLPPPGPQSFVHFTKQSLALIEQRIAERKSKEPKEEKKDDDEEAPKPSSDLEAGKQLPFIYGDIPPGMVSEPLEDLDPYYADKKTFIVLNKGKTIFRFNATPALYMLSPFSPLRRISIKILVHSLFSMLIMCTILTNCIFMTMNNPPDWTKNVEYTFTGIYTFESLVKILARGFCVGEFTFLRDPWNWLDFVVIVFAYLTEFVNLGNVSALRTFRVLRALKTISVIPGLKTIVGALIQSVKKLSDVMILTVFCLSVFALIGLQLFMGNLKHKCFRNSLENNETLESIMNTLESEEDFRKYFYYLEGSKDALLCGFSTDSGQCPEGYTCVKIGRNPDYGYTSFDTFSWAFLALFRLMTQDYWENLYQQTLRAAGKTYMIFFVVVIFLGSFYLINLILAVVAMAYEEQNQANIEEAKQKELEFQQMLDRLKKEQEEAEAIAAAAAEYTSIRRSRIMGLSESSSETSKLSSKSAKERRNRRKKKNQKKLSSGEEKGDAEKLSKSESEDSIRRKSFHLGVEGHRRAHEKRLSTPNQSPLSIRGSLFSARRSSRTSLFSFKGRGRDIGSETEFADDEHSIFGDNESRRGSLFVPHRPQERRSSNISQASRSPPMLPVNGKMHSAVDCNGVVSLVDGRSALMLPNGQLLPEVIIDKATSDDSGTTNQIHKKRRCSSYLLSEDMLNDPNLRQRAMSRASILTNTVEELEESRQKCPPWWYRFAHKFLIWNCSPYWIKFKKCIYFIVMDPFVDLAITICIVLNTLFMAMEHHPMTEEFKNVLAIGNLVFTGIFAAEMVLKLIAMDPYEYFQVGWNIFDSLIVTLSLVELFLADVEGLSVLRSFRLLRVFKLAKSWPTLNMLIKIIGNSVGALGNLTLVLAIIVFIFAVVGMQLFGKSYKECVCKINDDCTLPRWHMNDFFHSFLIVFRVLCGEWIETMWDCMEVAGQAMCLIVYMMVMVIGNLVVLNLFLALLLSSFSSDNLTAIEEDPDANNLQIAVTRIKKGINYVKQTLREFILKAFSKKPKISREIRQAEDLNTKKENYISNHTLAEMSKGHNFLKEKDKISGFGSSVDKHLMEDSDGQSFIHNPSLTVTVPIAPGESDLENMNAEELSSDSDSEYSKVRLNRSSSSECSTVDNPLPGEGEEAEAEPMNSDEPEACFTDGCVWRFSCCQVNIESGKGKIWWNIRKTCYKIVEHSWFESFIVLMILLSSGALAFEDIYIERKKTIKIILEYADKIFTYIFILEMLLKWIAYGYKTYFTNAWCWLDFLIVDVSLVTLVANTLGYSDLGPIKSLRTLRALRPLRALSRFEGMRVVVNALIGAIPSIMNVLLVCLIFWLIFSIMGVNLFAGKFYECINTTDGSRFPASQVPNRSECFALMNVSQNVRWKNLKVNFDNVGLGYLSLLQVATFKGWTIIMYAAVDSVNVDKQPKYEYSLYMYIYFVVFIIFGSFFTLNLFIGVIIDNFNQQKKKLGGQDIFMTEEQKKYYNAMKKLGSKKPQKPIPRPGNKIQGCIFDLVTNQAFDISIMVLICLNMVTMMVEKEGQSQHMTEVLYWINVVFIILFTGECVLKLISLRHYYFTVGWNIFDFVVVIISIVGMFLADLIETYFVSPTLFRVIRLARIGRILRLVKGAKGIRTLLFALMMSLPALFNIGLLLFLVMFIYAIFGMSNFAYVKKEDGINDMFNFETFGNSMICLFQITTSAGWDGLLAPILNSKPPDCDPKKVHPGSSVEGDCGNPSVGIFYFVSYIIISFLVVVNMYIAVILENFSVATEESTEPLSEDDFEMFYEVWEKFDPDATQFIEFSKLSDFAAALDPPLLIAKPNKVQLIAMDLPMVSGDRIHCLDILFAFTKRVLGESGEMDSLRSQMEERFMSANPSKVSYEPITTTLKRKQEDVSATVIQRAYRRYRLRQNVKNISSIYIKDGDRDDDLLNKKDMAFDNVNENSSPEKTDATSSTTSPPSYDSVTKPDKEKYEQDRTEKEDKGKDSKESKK

[3] = biological target: T1, Sodium channel protein type 9 subunit alpha; test: Inhibition of human Nav1.7 at -60 mV holding potential by cell-based manual patch clamp electrophysiology method
Target sequence in this assay (Q15858 whole entry): as above

[4] = biological target: T1, Sodium channel protein type 9 subunit alpha; test: Ratio of IC50 for human Nav1.7 at -60 mV holding potential by cell-based manual patch clamp electrophysiology method to IC50 for human Nav1.7 at -60 mV holding potential by cell-based IonWorks barracuda automated electrophysiology method
Target sequence in this assay (Q15858 whole entry, looked up): as the sequence (Q15858 whole entry) above

Homo sapiens = species: Homo sapiens; test: Selectivity ratio of IC50 for human Nav1.5 to IC50 for human Nav1.7
[5] = Permeability across apical to basolateral side in human Caco2 cells; format: ADME, cell-based; details: Caco-2, read-out: permeability
[6] = biological target: CYP450 (Cytochrome P450 family, isoform not stated) (Homo sapiens, UniProt P04798+P05177+P05181+P08684+P10632+P10635+P11509+P11712+P13584+P20813+P20815+P20853+P24462+P24903+P33260+P33261+P51589+P78329+P98187+Q02928+Q08477+Q16678+Q16696+Q5TCH4+Q6VVX0+Q7Z449+Q8TAV3+Q96SQ9+Q9HB55); test: Inhibition of human CYP450; format: ADME, protein assay
[7] = Permeability across basolateral to apical side in human Caco2 cells; format: ADME, cell-based; details: Caco-2, read-out: permeability
[8] = Efflux ratio of permeability from basolateral to apical side over apical to basolateral side in human Caco2 cells; format: ADME, cell-based; details: Caco-2
[9] = biological target: T1, Sodium channel protein type 9 subunit alpha; test: Ratio of IC50 for human Nav1.7 at -60 mV holding potential by cell-based IonWorks barracuda automated electrophysiology method to IC50 for human Nav1.7 at -60 mV holding potential by cell-based manual patch clamp electrophysiology method
Target sequence in this assay (Q15858 whole entry, looked up): as the sequence (Q15858 whole entry) above

Sodium channel protein type 5 subunit alpha, sequence (Q14524 whole entry): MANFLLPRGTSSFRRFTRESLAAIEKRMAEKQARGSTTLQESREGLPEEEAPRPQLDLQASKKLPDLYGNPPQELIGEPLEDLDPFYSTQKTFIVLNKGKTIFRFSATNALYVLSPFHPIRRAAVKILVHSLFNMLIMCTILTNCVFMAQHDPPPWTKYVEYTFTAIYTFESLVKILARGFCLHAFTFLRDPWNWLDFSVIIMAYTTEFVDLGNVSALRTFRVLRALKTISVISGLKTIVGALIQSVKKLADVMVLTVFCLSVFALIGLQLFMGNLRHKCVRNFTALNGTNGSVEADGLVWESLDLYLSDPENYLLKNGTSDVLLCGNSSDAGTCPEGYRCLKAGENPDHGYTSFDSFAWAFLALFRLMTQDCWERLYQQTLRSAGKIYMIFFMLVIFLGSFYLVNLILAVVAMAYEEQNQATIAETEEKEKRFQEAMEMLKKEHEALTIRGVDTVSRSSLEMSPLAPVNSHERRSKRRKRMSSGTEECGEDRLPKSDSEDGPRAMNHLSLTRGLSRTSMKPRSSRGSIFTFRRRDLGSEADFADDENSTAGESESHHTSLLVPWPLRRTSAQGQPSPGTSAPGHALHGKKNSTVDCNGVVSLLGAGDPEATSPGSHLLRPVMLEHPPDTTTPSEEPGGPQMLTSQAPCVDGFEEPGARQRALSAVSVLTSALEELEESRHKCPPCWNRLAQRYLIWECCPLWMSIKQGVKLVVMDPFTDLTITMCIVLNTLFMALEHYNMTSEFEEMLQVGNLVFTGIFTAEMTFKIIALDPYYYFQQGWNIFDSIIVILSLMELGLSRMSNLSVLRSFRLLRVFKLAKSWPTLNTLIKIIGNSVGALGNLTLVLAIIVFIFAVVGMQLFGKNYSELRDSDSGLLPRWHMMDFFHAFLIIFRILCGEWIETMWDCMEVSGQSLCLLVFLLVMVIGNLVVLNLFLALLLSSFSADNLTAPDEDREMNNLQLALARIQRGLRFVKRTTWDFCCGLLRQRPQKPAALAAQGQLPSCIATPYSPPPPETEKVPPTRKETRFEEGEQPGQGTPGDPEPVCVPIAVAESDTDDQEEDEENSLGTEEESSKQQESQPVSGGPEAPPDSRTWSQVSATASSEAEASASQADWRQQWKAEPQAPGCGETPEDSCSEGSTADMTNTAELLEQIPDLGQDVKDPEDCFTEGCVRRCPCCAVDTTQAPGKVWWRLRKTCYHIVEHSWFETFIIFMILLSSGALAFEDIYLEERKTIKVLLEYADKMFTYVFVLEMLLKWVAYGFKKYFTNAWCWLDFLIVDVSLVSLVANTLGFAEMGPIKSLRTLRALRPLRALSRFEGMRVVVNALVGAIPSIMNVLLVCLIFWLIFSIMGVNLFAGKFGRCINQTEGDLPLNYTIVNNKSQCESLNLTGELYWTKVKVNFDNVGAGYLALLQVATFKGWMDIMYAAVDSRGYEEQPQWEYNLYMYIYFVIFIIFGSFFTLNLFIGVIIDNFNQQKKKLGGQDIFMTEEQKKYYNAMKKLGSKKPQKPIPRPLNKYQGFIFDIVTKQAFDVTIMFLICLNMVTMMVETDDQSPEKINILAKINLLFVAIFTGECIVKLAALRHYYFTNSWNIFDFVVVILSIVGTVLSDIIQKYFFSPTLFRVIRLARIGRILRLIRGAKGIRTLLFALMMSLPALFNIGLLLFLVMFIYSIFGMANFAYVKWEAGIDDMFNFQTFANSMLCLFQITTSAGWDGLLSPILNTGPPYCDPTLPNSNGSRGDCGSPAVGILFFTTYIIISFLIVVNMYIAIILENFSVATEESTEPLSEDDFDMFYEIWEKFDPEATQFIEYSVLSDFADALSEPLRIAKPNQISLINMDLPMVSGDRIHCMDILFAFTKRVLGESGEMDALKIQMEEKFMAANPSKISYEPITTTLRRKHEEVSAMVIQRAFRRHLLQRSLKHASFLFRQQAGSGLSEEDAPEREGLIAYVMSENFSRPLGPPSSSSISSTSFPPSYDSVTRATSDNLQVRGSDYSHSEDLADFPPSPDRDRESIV

In the case of `Cn1cc(C2CCCNC2)c2ccc(C(=O)NS(=O)(=O)C3CC3)cc21` (stereo not drawn), the IC50 [1] is reported as > 30000 nM and the IC50 [2] is reported as > 30000 nM.
Work on `Cn1cc(C2C3CC4CC(C3)CC2C4)c2ccc(C(=O)NS(=O)(=O)C3CC3)cc21` (stereo not drawn) yielded an IC50 [1] of 8400 nM and an IC50 [2] of 79 nM.
With `C[C@@H]1CC[C@@H](c2cn(C)c3cc(C(=O)NS(=O)(=O)C4CC4)ccc23)C1` the IC50 [1] was > 30000 nM and the IC50 [2] was 509 nM.
For `COc1ncc(-c2c(C3CCCCC3)c3ccc(C(=O)NS(=O)(=O)C4CC4)cc3n2C)cc1C#N`, the IC50 [3] was 85 nM.
For `CCC(c1cn(C)c2cc(C(=O)NS(=O)(=O)C3CC3)ccc12)C(C)(C)C` (stereo not drawn), the IC50 [1] was > 30000 nM and the IC50 [2] was 1200 nM.
In the case of `Cn1cc(C2(C)CCCCO2)c2ccc(C(=O)NS(=O)(=O)C3CC3)cc21` (stereo not drawn), the IC50 [1] is reported as > 30000 nM and the IC50 [2] is reported as > 30000 nM.
`Cn1c(-c2ccc(C#N)nc2)c(C2CCCCC2)c2ccc(C(=O)NS(=O)(=O)C3CC3)cc21` showed a Ratio IC50 [4] of 3, an IC50 [3] of 366 nM and an IC50 [2] of 123 nM.
Work on `Cn1cc(C2CCCCC2)c2ccc(C(=O)NS(=O)(=O)C3CC3)cc21` yielded an IC50 [1] of 2400 nM, a Ratio IC50 (Homo sapiens) of 57 and an IC50 [3] of 55 nM. For the same molecule, the IC50 [2] was 42 nM.
For `Cc1cn(C2C=CCCC2)c2ccc(C(=O)NS(=O)(=O)C3CC3)cc12` (stereo not drawn), the IC50 [1] was 460 nM and the IC50 [2] was 72 nM.
In the case of `Cn1cc(C(C)(C)C)c2ccc(C(=O)NS(=O)(=O)C3CC3)cc21`, the IC50 [1] is reported as > 30000 nM and the IC50 [2] is reported as 1100 nM.
`Cn1cc(C2CCCC(C)(C)C2)c2ccc(C(=O)NS(=O)(=O)C3CC3)cc21` (stereo not drawn) showed an IC50 [1] of 4100 nM and an IC50 [2] of 48 nM.
`Cn1cc(C2CCC2)c2ccc(C(=O)NS(=O)(=O)C3CC3)cc21` showed an IC50 [1] of 6700 nM and an IC50 [2] of 360 nM.
For `CN1CCC(c2cn(C)c3cc(C(=O)NS(=O)(=O)C4CC4)ccc23)CC1`, the IC50 [1] was > 30000 nM and the IC50 [2] was > 30000 nM.
For `Cn1cc(C2C3CC4CC2CN(C4)C3)c2ccc(C(=O)NS(=O)(=O)C3CC3)cc21` (stereo not drawn), the IC50 [1] was > 30000 nM and the IC50 [2] was > 30000 nM.
For `Cn1cc(C2CCCCC2)c2cc(F)c(C(=O)NS(=O)(=O)C3CC3)cc21`, the IC50 [1] was > 10000 nM, the Papp A→B [5] was 12.9 ×10⁻⁶ cm/s and the IC50 [3] was 14 to 30 nM. For the same molecule, the IC50 [6] was > 10000 nM, the IC50 [2] was 30 nM and the Papp B→A [7] was 16 ×10⁻⁶ cm/s. The efflux ratio [8] was 1.2.
`Cn1cc(C2CCCCCC2)c2ccc(C(=O)NS(=O)(=O)C3CC3)cc21` showed an IC50 [2] of 116 nM.
For `Cn1cc(C2=CCN(C(=O)OC(C)(C)C)CC2)c2ccc(C(=O)NS(=O)(=O)C3CC3)cc21`, the IC50 [1] was > 30000 nM and the IC50 [2] was 635 nM.
For `O=C(NS(=O)(=O)C1CC1)c1ccc2c(C3CCCCC3)c3n(c2c1)CCCCC3O` (stereo not drawn), the IC50 [2] was > 30000 nM.
In the case of `C[C@H]1CC[C@@H](c2cn(C)c3cc(C(=O)NS(=O)(=O)C4CC4)ccc23)C1`, the IC50 [1] is reported as 5400 nM and the IC50 [2] is reported as 62 nM.
In the case of `Cn1ccc2ccc(C(=O)NS(=O)(=O)C3CC3)cc21`, the IC50 [1] is reported as > 30000 nM and the IC50 [2] is reported as > 30000 nM.
Molecule `Cn1cc(C2CCC(C(C)(C)C)CC2)c2ccc(C(=O)NS(=O)(=O)C3CC3)cc21` (stereo not drawn) has an IC50 [2] of 45 nM.
In the case of `O=C(NS(=O)(=O)C1CC1)c1ccc2c(C3CCCCC3)c3n(c2c1)CCCCC3=O`, the IC50 [2] is reported as 1500 nM.
In the case of `Cc1cn(C2CCCCC2)c2ccc(C(=O)NS(=O)(=O)C3CC3)cc12`, the IC50 [1] is reported as 13000 nM, the Papp A→B [5] is reported as 10.6 ×10⁻⁶ cm/s and the IC50 [6] is reported as > 10000 nM. The IC50 [2] was 37 nM, the Papp B→A [7] was 21.9 ×10⁻⁶ cm/s and the efflux ratio [8] was 2.1.
For `COc1ncc(-c2c(C3CCCCC3)c3ccc(C(=O)NS(=O)(=O)C4CC4)cc3n2C)cn1`, the IC50 [3] was 46 nM, the Ratio IC50 [9] was 4 and the IC50 [2] was 195 nM.
In the case of `Cc1cn(C)c2cc(C(=O)NS(=O)(=O)C3CC3)ccc12`, the IC50 [1] is reported as > 30000 nM and the IC50 [2] is reported as > 30000 nM.
With `Cn1c(-c2ccc(N3CCCC3)nc2)c(C2CCCCC2)c2ccc(C(=O)NS(=O)(=O)C3CC3)cc21` the IC50 [3] was 38 nM.
For `Cn1cc(C2=CCOCC2)c2ccc(C(=O)NS(=O)(=O)C3CC3)cc21`, the IC50 [1] was > 30000 nM and the IC50 [2] was 20000 nM.
For `Cn1cc(C2=CCNCC2)c2ccc(C(=O)NS(=O)(=O)C3CC3)cc21`, the IC50 [1] was > 30000 nM and the IC50 [2] was > 30000 nM.
With `Cn1cc(C2CCN(C(=O)OC(C)(C)C)CC2)c2ccc(C(=O)NS(=O)(=O)C3CC3)cc21` the IC50 [1] was > 30000 nM, the IC50 [3] was 383 nM and the IC50 [2] was 388 nM.
For `Cn1cc(C2CCCN(C(=O)OC(C)(C)C)C2)c2ccc(C(=O)NS(=O)(=O)C3CC3)cc21` (stereo not drawn), the IC50 [1] was > 30000 nM and the IC50 [2] was 388 nM.
For `Cn1cc(C2CCNCC2)c2ccc(C(=O)NS(=O)(=O)C3CC3)cc21`, the IC50 [1] was > 30000 nM and the IC50 [2] was > 30000 nM.
In the case of `Cc1nn(-c2cnc(OCC3(C)CC3)c(Cl)c2)c2ccc(C(=O)NS(C)(=O)=O)cc12`, the IC50 [3] is reported as 8 nM.
Work on `Cn1c(-c2ccoc2)c(C2CCCCC2)c2ccc(C(=O)NS(=O)(=O)C3CC3)cc21` yielded an IC50 [2] of 440 nM.
For `Cn1c(-c2cnc(N3CCOCC3)nc2)c(C2CCCCC2)c2ccc(C(=O)NS(=O)(=O)C3CC3)cc21`, the IC50 [3] was 30 nM.
